Laboratory results as given in patent US12303554B2, “Use of ultrarapid acting insulin” (MannKind Corporation, priority 2008, dated 2025).
Like-named read-outs stand apart in the source and are kept apart here.

Assays:
[1] = 52-week clinical trial in type 1 diabetes: basal insulin + prandial TI Inhalation Powder vs basal insulin + SC insulin aspart; format: in vivo, human
Excerpt: A Prospective, Multi-Center, Open-Label, Randomized, Controlled Clinical Trial Comparing the Efficacy and Safety in Subjects with Type 1 Diabetes Receiving SC Basal Insulin and Prandial Inhalation of Insulin-FDKP Versus SC Basal and Prandial Insulin Over a 52-Week Treatment Period and a 4-Week Follow-up
This was a prospective, multi-country, multicenter, open label, randomized, controlled clinical trial comparing glycemic control in subjects with type 1 diabetes receiving basal insulin and prandial insulin-FDKP (TI) Inhalation Powder (TI Inhalation Powder group) with subjects receiving basal insulin and SC rapid-acting insulin aspart (comparator group). This study included a 52-week treatment phase and a 4-week follow-up phase. During the 4-week follow-up phase, pulmonary function and select clinical laboratory assessments were scheduled.
The study began with enrollment at Week −3. Subjects received a complete battery of safety and eligibility assessments, including HbA1c and fasting plasma glucose (FPG).
At Week −1, subjects were randomized to one of the following 2 treatments: • Basal insulin+prandial TI Inhalation Powder • Basal insulin+prandial SC rapid-acting insulin
At Week −1, subjects again completed the first three components of the Insulin Treatment Questionnaire (ITQ) for the purpose of assessing test-retest reliability only). After completing the questionnaire, subjects randomized to the TI Inhalation Powder group were trained on the MEDTONE® Inhaler using TECHNOSPHERE®/insulin (insulin-FDKP) inhalation powder; subjects in the comparator group were trained in the use of the NOVOLOG® pens; all subjects were trained in administration of LANTUS®. Additionally, all subjects were trained on a blood glucose monitoring (HBGM) meter provided at the beginning of the trial and diary and received diabetes education. Any training was repeated at Week 0, if needed.
At the beginning of the treatment phase, subjects had several titration/dose evaluation visits to adjust insulin therapy. Titration visits occurred once a week for the first 4 weeks. During Weeks 4 through 10, there were three telephone “visits” (at Week 6, Week 8, and Week 10) to titrate dose, if necessary. However, dose titration was allowed throughout the trial.
All subjects completed a 7-point blood glucose profile on any 3 days during the week immediately preceding each visit from Week 0 to Week 52. The 7 time points included samples from before breakfast and 2 hours after breakfast, before the mid-day meal and 2 hours after the mid-day meal, before the evening meal and 2 hours after the evening meal and at bedtime (7 time points a day, over 3 days). These blood glucose (BG) values were recorded in the HBGM diary that was collected at clinic visits. The diaries for Weeks 4 through 10 (during dose titration) which were discussed over the telephone were collected at the next office visits.
A meal challenge test was performed at Week 4 (during dose titration), Week 26, and Week 52. Meal challenge venous blood sampling times were: −30, 0, 30, 60, 90, 105, 120, 180, 240, 300, and 360 minutes. Blood glucose (BG) was also measured using HBGM glucose meters to aid the Investigator in treatment decisions and values were obtained at −30, 0, 60, and 120 minutes during the meal challenge.
Treatments for glycemic control used in the trial were the following: prandial insulin-FDKP (TI) inhalation powder, prandial insulin aspart, and basal insulin glargine. Subjects assigned to the TI Inhalation Powder group (TI Inhalation Powder in combination with basal insulin therapy) received sc basal insulin glargine (LANTUS®) once daily (at bedtime) and inhaled TI Inhalation Powder 3 to 4 times a day, immediately before main meals or a snack as based upon clinical need. Adjustment of the TI Inhalation Powder dose and frequency of use to greater than 3 times a day was at the discretion of the Investigator. […]

[2] = cited from earlier work
[3] = format: in vivo, human
Method: The insulin-FDKP formulation is administered to the subjects by oral inhalation using a MEDTONE® dry powder inhaler (MannKind Corp.). Methods and results below are described in terms of the Original Protocol (OP), which includes the meal challenge in 18 subjects with three treatments (EXUBERA®, lispro and TI) and Amendment 1 (A1), which includes 12 subjects treated with only TI and lispro. […] The subjects were screened and evaluated before, during and after the experiments and their data analyzed as described below. Subjects were selected based on several key inclusion criteria, including, male and female, having ≥18 and ≤70 years of age with clinical diagnosis of type 2 diabetes mellitus for ≥12 months. The subjects selected for the study also had stable anti-diabetic regimen with insulin for the previous 3 months; HbA1c ≤8.5%; Body Mass Index (BMI) between ≤34 kg/m^2 and ≥25 kg/m^2; urine cotinine ≤100 ng/mL; […] Criteria for exclusion from the study also included unstable diabetes control and/or evidence of serious complications of diabetes (e.g., autonomic neuropathy); serum creatinine >1.8 mg/dL in female subjects and >2.0 mg/dL in male subjects. Other clinically important pulmonary disease was confirmed by documented history or pulmonary function testing. Under OP, the study was planned to be a randomized, open label, 3-way cross-over study. […] At this analysis all patients at least had completed the meal challenge visits and only those data have been used. The screening visit(s) (V1) occurred 1 to 21 days before the first treatment visit (V2) with 7 to 21 days elapsing between treatment-visits (V2, V3, and V4) for the meal challenge test. A minimum of 8 weeks elapsed between V4 and the next treatment visit, (V6). An additional safety visit (V5) was scheduled 1-3 days prior to the first of 3 glucose clamp procedures (V6). The glucose clamp procedure occurred at 3 visits, Visits V6, V7, and V8, with 7 to 21 days elapsing between the visits. […] Each treatment visit during the meal challenge had the subjects hospitalized in the clinical unit the night before initiation of treatment. […] Each subject followed the same randomization order for the glucose-clamp procedures as for the meal challenge tests. During the study, periodic blood draws for determination of pharmacokinetic and/or pharmacodynamic parameters, and safety were taken beginning at 12 hours prior to onset of the treatment regimens and meal challenge, and thereafter for a period of 8 hours. […] Meal Challenge Test: BOOST PLUS® (12 fl. oz.) consisting of 67.5 g carbohydrate, 21 g protein, 21 g fat, energy content 540 kcal was used for the meal challenge test. The BOOST PLUS® was enriched with U-^13C-glucose to determine the amount of absorbed glucose. Concurrent enriched continuous infusion of 6,6-^2H2 glucose was used to assess endogenous glucose production EGP. […] Under OP, the dose for insulin lispro was selected based on information obtained from the regulatory label. The dose selected for EXUBERA® was obtained by means of back calculation of the most commonly used dose information presented to the FDA Advisory Committee in the EXUBERA® Briefing Document. […] Blood glucose concentrations were measured at regular intervals from arterialized venous blood samples. The amount of orally absorbed glucose was estimated by determination of U-^13C-glucose. EGP was determined by measurement of 6,6-^2H2 glucose applying the modified calculations for the non-steady state ([…], and D. T. Stein. Calculating glucose fluxes during meal tolerance test: a new computational approach. Am. J. Physiol Endocrinol. Metab 293 (2):[…]-[…], 2007). C-peptide concentrations were measured pre- and post-dose to assess endogenous insulin secretion. In addition, glucagon and free fatty acid concentrations were also determined.

[4] = format: in vivo, human; settings: 10 U lispro
Method: Following the completion of the meal challenge, the data was analyzed as per the statistical analysis plan. […] The study was amended (A1) and included 12 subjects (10 were reenrolled from the first meal challenge), and only two treatments, which were 10 U lispro and 60 and 90 U TI. The doses were selected based on the relative bioavailability observed following the first meal challenge (OP), where under an assumption of linear kinetics, 10 U lispro and 60 U TI would result in similar exposure. The 90 U dose group was included to assess the effect of the highest dose group of TI studied in Phase 3 trials. Six of the 12 subjects received 60 U TI and the other 6 subjects received 90 U TI. All 12 subjects received 10 U lispro in a crossover fashion. […] Blood glucose concentrations were measured at regular intervals from arterialized venous blood samples. […] EGP was determined by measurement of 6,6-^2H2 glucose applying the modified calculations for the non-steady state ([…], and D. T. Stein. Calculating glucose fluxes during meal tolerance test: a new computational approach. Am. J. Physiol Endocrinol. Metab 293 (2):[…]-[…], 2007). C-peptide concentrations were measured pre- and post-dose to assess endogenous insulin secretion. In addition, glucagon and free fatty acid concentrations were also determined.

[5] = 52 weeks, + basal insulin glargine
[6] = 52 weeks, + basal insulin, baseline 187.6 (SD 85.1) TI, 180.8 (SD 86.9) comparator
[7] = 45 U insulin-FDKP, 4 mg EXUBERA, 12 U lispro, FIG. 6

## insulin aspart
[1]; [5]
  Percentage of subjects whose HbA1c level decreased to ≤6.5%: 7.31%
  Percentage of subjects whose HbA1c level decreased to ≤7.0%: 15.98%
  Percentage of subjects whose HbA1c level decreased to ≤8.0%: 56.16%
[1]; [6]
  Mean FPG at the end of the treatment period: 161.3 (SD 68.2) mg/dL
  Mean decrease in fasting plasma glucose (FPG) over the treatment period: 23.4 (SD 103.1) mg/dL
[1]; + basal insulin glargine, baseline 8.41 (SD 0.92) TI arm, 8.48 (SD 0.97) insulin aspart arm
  HbA1c at Week 14: 8.07 (SD 1.09) %
[1]; over the 52-week treatment period, + basal insulin
  Average body weight gain: 1.4 kg
[2]; subjects with type 1 diabetes, prescribing information
  Median Tmax: 40 to 50 min

## Regular human insulin: regular human insulin preparations for subcutaneous injection, considered short acting
[2]; subcutaneous injection
  Duration of significant elevation or activity: 10 to 12 h

## insulin glulisine: rapid acting insulin analog
[2]; type 1 and type 2 diabetes populations, prescribing information
  Range of Tmax: 40 to 120 min

## insulin lispro: rapid acting insulin analog, subcutaneously administered (Eli Lilly & Co.)
[3]; 45 U insulin-FDKP inhaled, 4 mg EXUBERA inhaled, 12 U lispro sc at onset of meal
  Time post-treatment at which (further) glucose infusion was needed to remain above 90 mg/dL: ~3 h
[3]; 45 U insulin-FDKP, 4 mg EXUBERA, 12 U lispro, FIG. 5
  Time of peak inhibition of endogenous glucose production after treatment: about 80 minutes
[3]; [7]
  Time of peak glucose disappearance rate after dosing: about 120 minutes
  Time post dosing at which glucose disappearance rate became substantial / departed from baseline: about 30 minutes
[3]; human, in vivo
  Total insulin exposure, greater than following 45 U insulin-FDKP (TI) or 4 mg EXUBERA: approximately 40%
[3]; human, in vivo, 4 mg
  Insulin concentration tmax (median): 75 min
[4]; 60 U and 90 U insulin-FDKP, FIG. 11
  Time of peak glucose disappearance rate after dosing: about 100 minutes
[4]; 60 U or 90 U insulin-FDKP (two treatments, dose assignment not stated), FIG. 10
  Time of peak inhibition of endogenous glucose production following dosing: about 100 minutes
